Experimental data: publication PMC12640663 (Chemmedchem, 2025)

What was measured:
[1] = tested on: streptozotocin‐induced diabetic rats; parameters: method as in PMID 37628991; conditions: cited from earlier work
TCPTP = biological target: T1, TCPTP (Homo sapiens, UniProt P17706); assay: T‐cell protein tyrosine phosphatase (TCPTP) activity assay (p‐NPP); format: biochemical; conditions: for TCPTP inhibition (in words): up to 100 μM; for IC50: ± S.D, assessed up to 100 μM, read-out: TCPTP IC50
T1 sequence (P17706 1-415): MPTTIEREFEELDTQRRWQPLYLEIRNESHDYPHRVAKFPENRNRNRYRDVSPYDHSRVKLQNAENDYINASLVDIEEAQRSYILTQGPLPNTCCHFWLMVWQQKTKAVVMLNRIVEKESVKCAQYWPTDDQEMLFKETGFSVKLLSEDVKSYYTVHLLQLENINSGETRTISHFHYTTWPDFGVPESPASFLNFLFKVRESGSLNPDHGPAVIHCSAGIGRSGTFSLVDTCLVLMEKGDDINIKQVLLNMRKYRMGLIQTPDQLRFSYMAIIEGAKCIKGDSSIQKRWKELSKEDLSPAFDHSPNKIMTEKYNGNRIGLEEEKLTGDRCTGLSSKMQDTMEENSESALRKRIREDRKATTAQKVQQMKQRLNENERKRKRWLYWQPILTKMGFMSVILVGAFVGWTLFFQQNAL
Method: The effectiveness and safety of protein tyrosine phosphatase (PTP) inhibitors depend on their specificity. PTP1B and TCPTP serve different functions: PTP1B is involved in metabolism and cancer, while TCPTP regulates immune function. Inhibiting TCPTP could impact the immune response, whereas inhibiting PTP1B may benefit metabolic diseases without these side effects.^[ [20] ^, [34] ^, [35] ^] […] These compounds were assessed up to 100 μM (Table 1).
TCPTP enzyme reported by Mendoza et al. was used for this assay. […] Aliquots of 0–10 µL (triplicate) of the newly synthesized compounds, positive control, and solvent were taken. These were incubated with 85 µL of enzyme solution (Tris, 50 mM, pH 6.8, TCPTP) and 5 µL of substrate (p‐NPP, 10 mM) for 15 min at 37 °C.

hPTP1B1–400 = biological target: T2, hPTP1B1–400 (Homo sapiens, UniProt P18031); assay: PTP1B activity assay, long form hPTP1B1–400 (p‐NPP); format: biochemical; parameters: hPTP1B1–400 (the long form with an intrinsically disordered C‐terminal regulatory domain); conditions: for IC50: ± S.D, p‐NPP substrate, 15 min at 37 °C, triplicate
T2 sequence (P18031 1-400): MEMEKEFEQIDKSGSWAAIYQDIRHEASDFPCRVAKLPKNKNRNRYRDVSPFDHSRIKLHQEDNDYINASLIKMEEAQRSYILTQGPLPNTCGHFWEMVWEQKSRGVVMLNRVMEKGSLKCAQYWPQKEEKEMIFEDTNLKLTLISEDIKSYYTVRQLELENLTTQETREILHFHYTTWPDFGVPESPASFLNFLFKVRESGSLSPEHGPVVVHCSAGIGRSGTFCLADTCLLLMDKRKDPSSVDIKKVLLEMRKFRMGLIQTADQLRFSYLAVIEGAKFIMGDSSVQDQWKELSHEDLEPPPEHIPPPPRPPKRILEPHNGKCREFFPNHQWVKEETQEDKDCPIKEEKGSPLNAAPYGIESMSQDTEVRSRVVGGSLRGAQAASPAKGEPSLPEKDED
Method: (§1) The inhibitory activity of PTP1B was assessed using two enzyme variants: hPTP1B1–285 (the short form with an N‐terminal catalytic domain) and hPTP1B1–400 (the long form with an intrinsically disordered C‐terminal regulatory domain). […] According to Coronel‐Tovar et al., the disordered region of the C‐terminal domain plays a crucial role in modulating PTP1B enzymatic activity.^[ [30] ^] […] Different concentrations of the compounds were evaluated to determine their IC50 values (Table 1 ).
(§2) Recombinant human protein tyrosine phosphatase 1B, consisting of 400 and 285 amino acid residues, was used.^[ [35] ^] […] Aliquots of 0–10 µL of the test compounds (triplicate) were taken and incubated for 15 min at 37 °C with 85 µL of Tris buffer solution (50 mM, pH 6.8) containing PTP1B enzyme and 5 µL of p‐nitrophenyl phosphate substrate (p‐NPP, 10 mM). Absorbance was then measured at a wavelength of 405 nm. The inhibitory activity was determined according to Equation (1). (1) % PTP1B=(A405b/A405c)×100 where % PTP1B: Is the percentage of inhibition. A 405c: Is the corrected absorbance of the blank (A 405initial–A 405final). A 405b: Is the corrected absorbance of the compounds (A 405control–A 405compound).

[2] = parameters: method as in PMID 37628991; conditions: cited from earlier work
HepG2 cells = assay: Cell viability with crystal violet; format: cell-based; conditions: 1 and 25 µM, 24 h
Method: Subsequently, we evaluated the same compounds in a HepG2 insulin‐resistant model.
A 96‐well plate was seeded with 3,000 cells per well and incubated for 24 h. Afterward, the cells were treated with test compounds at various concentrations for 24 h. After incubation, the media was removed, and 100 µL of 1% glutaraldehyde was added for 15 min. Afterward, the liquid was removed, and 50 µL of 0.5% crystal violet (dissolved in 25% methanol) was added for 30 min. The crystal violet staining solution was removed, and the plate was thoroughly washed with tap water. The precipitate was dissolved in a 10% acetic acid solution and mixed for 15 min. The absorbance was then measured at 590 nm using a plate reader (xMark Microplate Spectrophotometer—Bio‐Rad).
Figure S59. Cell viability assessment by crystal violet staining. HepG2 cell viability was evaluated
after treatment with the respective compounds at concentrations of 1 and 25 µM for 24 hours. Bar
graphs represent mean ± SEM.

PTP1B = conditions: cited from earlier work
hPTP1B1–285 = biological target: T3, hPTP1B1–285 (Homo sapiens, UniProt P18031); assay: PTP1B activity assay, short form hPTP1B1–285 (p‐NPP); format: biochemical; conditions: ± S.D; p‐NPP substrate, 15 min at 37 °C
T3 construct: hPTP1B1–285 (the short form with an N‐terminal catalytic domain)
T3 sequence (P18031 1-285): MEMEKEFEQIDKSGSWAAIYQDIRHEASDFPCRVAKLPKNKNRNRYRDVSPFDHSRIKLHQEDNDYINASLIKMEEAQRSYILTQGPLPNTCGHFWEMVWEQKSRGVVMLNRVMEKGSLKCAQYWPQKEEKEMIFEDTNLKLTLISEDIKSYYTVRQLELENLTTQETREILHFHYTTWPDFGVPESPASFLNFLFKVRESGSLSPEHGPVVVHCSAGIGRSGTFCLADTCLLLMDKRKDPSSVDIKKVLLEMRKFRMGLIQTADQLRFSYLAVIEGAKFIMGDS
Method: as §1
To do so, these terpenoids were tested against hPTP1B1–285.
as §2

[3] = streptozotocin‐induced diabetic rats

TCPTP inhibition (in words) (TCPTP)	IC50 (TCPTP)	IC50 (hPTP1B1–400)	fold more potent than the alpha epimer (hPTP1B1–400; beta epimer vs alpha epimer (FC‐114 vs 3c, FC‐122 vs 5c), hPTP1B1–400 IC50)	IC50 (hPTP1B1–285)	Structure (SMILES)	antidiabetic activity [1]	insulin levels ([1]; streptozotocin‐induced diabetic rats, compared with glibenclamide)	HDL cholesterol [1, 3]	total cholesterol levels [1, 3]	doses at which safe [2]	HepG2 cell viability (HepG2 cells)	HepG2 cell viability (HepG2 cells; listed as FC-114)	times better potency against PTP1B than 18β‐GA (PTP1B)	type of PTP1B inhibition (PTP1B)	HepG2 cell viability (HepG2 cells; listed as FC-122)
did not inhibit TCPTP	> 100 µM	0.48 ± 0.006 µM	–	–	CC1(C(=O)O)CCC2(C)CCC3(C)C(=CC(=O)C4C5(C)Cc6c([nH]c7ccc(C(F)(F)F)cc67)C(C)(C)C5CCC43C)C2C1 (centres unmarked) [FC‐114]	showed antidiabetic activity	increased insulin levels more than glibenclamide	without affecting HDL cholesterol	significantly reduced total cholesterol levels	below 2000 mg kg^−1	did not compromise HepG2 cell viability	No significant differences	25 times	noncompetitive inhibitor	–
did not inhibit TCPTP	> 100 µM	1.15 ± 0.04 µM	1.3 fold	25.1 ± 0.85 µM	Cc1ccc(-n2ncc3c2C(C)(C)C2CCC4(C)C(C(=O)C=C5C6CC(C)(C(=O)O)CCC6(C)CCC54C)C2(C)C3)cc1 (centres unmarked) [FC‐122]	showed antidiabetic activity	–	–	–	below 2000 mg kg^−1	did not compromise HepG2 cell viability	–	14 times	uncompetitive inhibitor	No significant differences
